Assay results from PMC2699512 (Nucleic Acids Research, 2009).

molecular target: T1, yeast RNA triphosphatase (Cet1; S. cerevisiae RTPase) (Saccharomyces cerevisiae, UniProt O13297); assay: inhibition of [γ-32P]GTP hydrolysis, TLC of released phosphate; format: biochemical
T1 sequence (O13297 2-549): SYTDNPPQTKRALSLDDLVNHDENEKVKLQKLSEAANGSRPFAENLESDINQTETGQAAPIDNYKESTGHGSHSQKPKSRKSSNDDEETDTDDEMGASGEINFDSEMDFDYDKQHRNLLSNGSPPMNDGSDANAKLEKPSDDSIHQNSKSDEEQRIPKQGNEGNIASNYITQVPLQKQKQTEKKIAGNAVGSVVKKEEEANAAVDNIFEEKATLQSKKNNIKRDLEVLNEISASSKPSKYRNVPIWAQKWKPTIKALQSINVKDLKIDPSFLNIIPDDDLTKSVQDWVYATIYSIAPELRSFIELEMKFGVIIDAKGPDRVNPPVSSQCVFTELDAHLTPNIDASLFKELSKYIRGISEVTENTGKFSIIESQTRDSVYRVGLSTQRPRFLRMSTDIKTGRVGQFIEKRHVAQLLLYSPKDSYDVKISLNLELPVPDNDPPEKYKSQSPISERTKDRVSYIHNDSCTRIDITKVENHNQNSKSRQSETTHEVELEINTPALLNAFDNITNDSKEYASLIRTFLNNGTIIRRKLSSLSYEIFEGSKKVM

SMILES | IC50
Cn1c(N)nc2c(ncn2[C@@H]2O[C@H](COP(=O)(O)OP(=O)(O)OP(=O)(O)O)[C@@H](O)[C@H]2O)c1=O [A-4] | 8.1 µM
COc1nc(N)nc2c1ncn2[C@@H]1O[C@H](COP(=O)(O)OP(=O)(O)OP(=O)(O)O)[C@@H](O)[C@H]1O [A-5] | 150 µM
Nc1nc(Cl)c2ncn([C@@H]3O[C@H](COP(=O)(O)OP(=O)(O)OP(=O)(O)O)[C@@H](O)[C@H]3O)c2n1 [A-6] | 53 µM
O=c1[nH]c(=O)c2ncn([C@@H]3O[C@H](COP(=O)(O)OP(=O)(O)OP(=O)(O)O)[C@@H](O)[C@H]3O)c2[nH]1 [A-8] | 10 µM
Nc1nc2c(ncn2[C@@H]2O[C@H](COP(=O)(O)OP(=O)(O)OP(=O)(O)O)[C@@H](O)[C@H]2O)c(=S)[nH]1 [A-9] | 16 µM
O=P(O)(O)OP(=O)(O)OP(=O)(O)OC[C@H]1O[C@@H](n2cnc3c(Cl)ncnc32)[C@H](O)[C@@H]1O [A-11] | 2 µM
Nc1nc2c(ncn2[C@H]2CC[C@@H](COP(=O)(O)OP(=O)(O)OP(=O)(O)O)O2)c(=O)[nH]1 [A-12] | 6.1 µM
O=P(O)(O)OP(=O)(O)OP(=O)(O)OC[C@H]1O[C@@H](n2cnc3c(S)ncnc32)[C@H](O)[C@@H]1O [A-18] | 8.1 µM
Nc1nc2c(ncn2[C@@H]2O[C@H](COP(=O)(O)OP(=O)(O)OP(=O)(O)O)[C@@H](O)[C@H]2O)c(=O)[nH]1 [GTP] | 87 µM
O=P(O)(O)OP(=O)(O)OP(=O)(O)O [Tripoly-PO4] | 0.4 µM
Nc1nc2c(ncn2[C@H]2C[C@H](O)[C@@H](COP(=O)(O)OP(=O)(O)OP(=O)(O)O)O2)c(=O)[nH]1 [dGTP] | 76 µM

molecular target: T1, yeast RNA triphosphatase (Cet1; S. cerevisiae RTPase); assay: GTPase inhibition kinetics, TLC; format: biochemical

SMILES | Ki
Cn1c(N)nc2c(ncn2[C@@H]2O[C@H](COP(=O)(O)OP(=O)(O)OP(=O)(O)O)[C@@H](O)[C@H]2O)c1=O [A-4] | 1.5 µM
COc1nc(N)nc2c1ncn2[C@@H]1O[C@H](COP(=O)(O)OP(=O)(O)OP(=O)(O)O)[C@@H](O)[C@H]1O [A-5] | 27 µM
Nc1nc(Cl)c2ncn([C@@H]3O[C@H](COP(=O)(O)OP(=O)(O)OP(=O)(O)O)[C@@H](O)[C@H]3O)c2n1 [A-6] | 9.6 µM
O=c1[nH]c(=O)c2ncn([C@@H]3O[C@H](COP(=O)(O)OP(=O)(O)OP(=O)(O)O)[C@@H](O)[C@H]3O)c2[nH]1 [A-8] | 1.8 µM
Nc1nc2c(ncn2[C@@H]2O[C@H](COP(=O)(O)OP(=O)(O)OP(=O)(O)O)[C@@H](O)[C@H]2O)c(=S)[nH]1 [A-9] | 2.9 µM
O=P(O)(O)OP(=O)(O)OP(=O)(O)OC[C@H]1O[C@@H](n2cnc3c(Cl)ncnc32)[C@H](O)[C@@H]1O [A-11] | 0.4 µM
Nc1nc2c(ncn2[C@H]2CC[C@@H](COP(=O)(O)OP(=O)(O)OP(=O)(O)O)O2)c(=O)[nH]1 [A-12] | 1.1 µM
Nc1nc2c(ncn2[C@@H]2O[C@H](COP(=O)(O)OP(=O)(O)OP(=O)(O)O)[C@@H](O)[C@H]2O)c(=O)[nH]1 [GTP] | 16 µM
Nc1nc2c(ncn2[C@H]2C[C@H](O)[C@@H](COP(=O)(O)OP(=O)(O)OP(=O)(O)O)O2)c(=O)[nH]1 [dGTP] | 14 µM
